# Source: ChEMBL document CHEMBL1782039, “Discovery of ((1S,3R)-1-isopropyl-3-((3S,4S)-3-methoxy-tetrahydro-2H-pyran-4-ylamino)cyclopentyl)(4-(5-(trifluoromethyl)pyridazin-3-yl)piperazin-1-yl)methanone, PF-4254196, a CCR2 antagonist with an improved cardiovascular profile” (Bioorg Med Chem Lett, 2011)
# Assays:
# [1] = Blood clearance in rat; format: ADME, organism-based; details: whole blood
# [2] = Intrinsic clearance in human liver microsomes; format: ADME, Microsome
# [3] = Half life in rat; format: ADME, organism-based; details: in vivo
# in vivo = details: rat, brain and plasma
# [4] = Lipophilicity, log D of the compound at pH 7.4; format: physicochemical; details: buffer
# [5] = Bioavailability in rat at 1 mg/kg, po and iv; format: ADME, organism-based; details: in vivo
microsomal CLint [2],logD [4],Structure (SMILES),other results
< 7 µL/min/mg,0.7,CO[C@@H]1COCC[C@@H]1N[C@@H]1CC[C@@](C(=O)N2CCN(c3ccnc(C(F)(F)F)c3)CC2)(C(C)C)C1,
< 7 µL/min/mg,0.5,CO[C@@H]1COCC[C@@H]1N[C@@H]1CC[C@@](C(=O)N2CCN(c3cc(C(F)(F)F)cnn3)CC2)(C(C)C)C1,bioavailability [5]: 50%
58 µL/min/mg,,CC(C)[C@]1(C(=O)N2CCN(c3cc(C(F)(F)F)cnn3)CC2)CC[C@@H](NC2C3CCCC2COC3)C1 (stereo in doubt; 27),

# Second part, the compound before the results:
Structure (SMILES),microsomal CLint [2],logD [4],other results
CO[C@@H]1COCC[C@@H]1N[C@@H]1CC[C@@](C(=O)N2CCN(c3cc(C(F)(F)F)ccn3)CC2)(C(C)C)C1,9.3 µL/min/mg,,clearance [1]: 33.8 mL/min/kg; half-life [3]: 3.9 h; Kp (in vivo): 3
CO[C@@H]1COCC[C@@H]1N(C)[C@@H]1CC[C@@](C(=O)N2CCN(c3cc(C(F)(F)F)ccn3)CC2)(C(C)C)C1,58 µL/min/mg,,
CC(C)[C@]1(C(=O)N2CCN(c3cc(C(F)(F)F)ccn3)CC2)CC[C@@H](N2CCC3COCCC32)C1 (stereo in doubt; 22),< 7 µL/min/mg,,
